# Reference: ChEMBL document CHEMBL1201862, “PubChem BioAssay data set” (2004)
# Active and inactive are the calls of the source.
# Key:
# [1] = target: T1, Hexokinase HKDC1 (Homo sapiens, UniProt Q2TB90); test: inhibition of HKDC1 glucose phosphorylation – biochemical, W721R variant, dose response (AID 504729); type: functional
# T1 sequence (Q2TB90 whole entry): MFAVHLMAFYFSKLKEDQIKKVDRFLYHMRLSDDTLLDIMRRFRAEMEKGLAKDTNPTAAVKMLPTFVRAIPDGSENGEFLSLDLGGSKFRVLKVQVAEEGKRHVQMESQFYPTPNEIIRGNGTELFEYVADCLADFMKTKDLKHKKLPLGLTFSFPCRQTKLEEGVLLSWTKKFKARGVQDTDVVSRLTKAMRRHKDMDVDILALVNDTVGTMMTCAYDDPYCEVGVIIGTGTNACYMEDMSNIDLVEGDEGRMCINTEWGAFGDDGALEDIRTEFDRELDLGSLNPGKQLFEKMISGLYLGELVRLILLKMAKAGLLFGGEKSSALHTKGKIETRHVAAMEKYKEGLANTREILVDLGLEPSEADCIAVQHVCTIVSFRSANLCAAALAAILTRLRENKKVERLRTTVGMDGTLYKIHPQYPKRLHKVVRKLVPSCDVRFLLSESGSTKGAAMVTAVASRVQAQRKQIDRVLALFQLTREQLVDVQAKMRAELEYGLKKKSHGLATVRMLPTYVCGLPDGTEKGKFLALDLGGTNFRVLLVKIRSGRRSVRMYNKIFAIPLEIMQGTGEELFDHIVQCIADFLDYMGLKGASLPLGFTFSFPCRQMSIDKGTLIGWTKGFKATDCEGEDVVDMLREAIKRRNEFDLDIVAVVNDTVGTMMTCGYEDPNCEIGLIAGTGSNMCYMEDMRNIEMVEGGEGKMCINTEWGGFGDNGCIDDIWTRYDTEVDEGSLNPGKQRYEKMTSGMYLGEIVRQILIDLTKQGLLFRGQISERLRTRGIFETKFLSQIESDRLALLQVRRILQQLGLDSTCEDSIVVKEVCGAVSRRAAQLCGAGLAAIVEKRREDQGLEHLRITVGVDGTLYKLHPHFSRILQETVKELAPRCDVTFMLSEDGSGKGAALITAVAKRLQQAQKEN
# [2] = target: T2, Short transient receptor potential channel 4 (Mus musculus, UniProt Q9QUQ5); test: calcium entry via TRPC4 opening agents – cell-based, HEK293 TRPC4/mu-opioid, Fluo-4 calcium, dose response (AID 434937); type: functional
# T2 sequence (Q9QUQ5 whole entry): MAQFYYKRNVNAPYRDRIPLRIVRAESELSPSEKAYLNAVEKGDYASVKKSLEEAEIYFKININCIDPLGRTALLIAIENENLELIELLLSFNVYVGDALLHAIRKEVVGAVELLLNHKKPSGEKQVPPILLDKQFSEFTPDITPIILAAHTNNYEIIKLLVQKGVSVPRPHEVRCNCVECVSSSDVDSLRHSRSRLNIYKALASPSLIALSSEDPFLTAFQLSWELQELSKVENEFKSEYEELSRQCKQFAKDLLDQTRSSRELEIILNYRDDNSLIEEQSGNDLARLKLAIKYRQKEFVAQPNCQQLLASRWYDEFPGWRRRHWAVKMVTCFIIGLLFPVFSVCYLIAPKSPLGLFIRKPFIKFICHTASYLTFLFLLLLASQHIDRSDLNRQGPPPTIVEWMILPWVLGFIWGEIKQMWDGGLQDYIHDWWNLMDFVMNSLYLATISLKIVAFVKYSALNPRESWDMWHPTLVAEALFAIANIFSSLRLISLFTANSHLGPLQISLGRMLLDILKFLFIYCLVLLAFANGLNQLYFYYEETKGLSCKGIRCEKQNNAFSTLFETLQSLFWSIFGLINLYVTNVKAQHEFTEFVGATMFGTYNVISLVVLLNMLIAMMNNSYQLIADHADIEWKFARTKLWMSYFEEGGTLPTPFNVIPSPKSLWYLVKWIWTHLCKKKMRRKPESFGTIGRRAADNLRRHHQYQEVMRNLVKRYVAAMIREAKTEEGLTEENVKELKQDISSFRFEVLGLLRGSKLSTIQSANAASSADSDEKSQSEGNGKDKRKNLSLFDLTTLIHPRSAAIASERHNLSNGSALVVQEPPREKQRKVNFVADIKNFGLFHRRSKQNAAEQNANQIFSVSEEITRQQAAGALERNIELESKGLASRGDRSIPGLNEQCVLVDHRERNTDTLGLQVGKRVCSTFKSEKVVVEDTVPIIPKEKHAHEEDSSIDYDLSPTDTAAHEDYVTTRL
# [3] = luciferase reporter signal suppression in cells – H4 neuroglioma cells, luminescence, dose response (AID 1990); type: functional, cell-based
# [4] = system: BJ; test: growth inhibition of engineered Ras-driven BJ cells – cell-based, alamar blue fluorescence, cherrypicked samples, dose response (AID 2631); type: functional; details: Homo sapiens;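 note: confirmatory dose-response assay in RAS-dependent BJ fibroblasts engineered with TERT, LT and ST, with cytotoxicity read by fluorescence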
# [5] = system: BJ; test: cells; type: functional, cell-based; details: Homo sapiens
# [6] = target: X-box-binding protein 1 (Homo sapiens, UniProt P17861); type: functional, Cricetulus griseus;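 note: confirmatory dose-response counter-screen serving a CHOP assay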
# [7] = alpha-synuclein stem-loop luciferase translation blockers – H4 neuroglioma cells, luminescence, confirmation (AID 1988); type: functional, cell-based
# [8] = system: BJ; test: BJ-TERT fibroblast viability loss – cell-based, RAS-independent, luminescence, dose response (AID 1933); type: functional; details: Homo sapiens
# [9] = Luminescence Cell-Based Dose Response HTS to Identify Inhibitors of 5'UTR Stem-Loop Driven Prion Protein mRNA Translation in H4 Neuroglioblastoma Cells. [Related pubchem assays: 1827 (Project Summary), 1813 (Primary HTS)]; type: functional
# [10] = system: BJ; test: BJ-TERT-LT-ST fibroblast viability loss – cell-based, RAS-independent, luminescence, dose response (AID 1935); type: functional; details: Homo sapiens;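 note: BJ fibroblasts immortalized with TERT plus LT and ST oncogenes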
# [11] = DRD fibroblast viability loss – cell-based, non-viral oncogenic, luminescence, dose response (AID 1934); type: functional; details: Homo sapiens
# [12] = target: T3, Calpain-2 catalytic subunit (Sus scrofa, UniProt P43367); test: m-calpain protease blockers, concentration series – biochemical, fluorogenic peptide substrate, dose response (AID 1420); type: functional
# T3 sequence (P43367 whole entry): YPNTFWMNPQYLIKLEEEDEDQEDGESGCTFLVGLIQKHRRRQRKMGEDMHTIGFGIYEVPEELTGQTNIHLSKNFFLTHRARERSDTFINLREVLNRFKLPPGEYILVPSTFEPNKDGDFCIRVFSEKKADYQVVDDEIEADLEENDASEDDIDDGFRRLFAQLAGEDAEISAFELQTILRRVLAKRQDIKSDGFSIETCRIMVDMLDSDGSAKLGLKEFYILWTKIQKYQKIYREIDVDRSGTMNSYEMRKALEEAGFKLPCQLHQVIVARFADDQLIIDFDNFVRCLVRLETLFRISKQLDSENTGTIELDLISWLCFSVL
# [13] = target: Luciferin 4-monooxygenase (Photinus pyralis, UniProt P08659); test: inhibition of purified Photinus pyralis luciferase – biochemical, luminescence, dose response (AID 1891)
# [14] = target: Nonstructural protein 1 (Influenza A virus, UniProt Q194T2); type: functional, Influenza A virus (A/California/07/2009(H1N1))
# [15] = Luminescence Cell-Based Dose Confirmation HTS to Identify Inhibitors of Platelet Dense Granule Release. [Related pubchem assays: 1663 (Primary HTS), 1678 (Summary of Project)]; type: functional
# [16] = target: T4, Cannabinoid receptor 1 (Homo sapiens, UniProt P21554); test: SAR analysis of agonists of the Cannabinoid Receptor 1 using an Image-Based Assay - Set 3. [Related pubchem assays (depositor defined):AID1961, AID1965]; type: functional
# [17] = target: T5, G-protein coupled receptor 35 (Homo sapiens, UniProt Q9HC97); test: SAR analysis of Antagonists of the GPR35 Receptor using an Image-Based Assay - Set 4. [Related pubchem assays (depositor defined):[…]]; type: functional
# [18] = target: G-protein coupled receptor 55 (Homo sapiens, UniProt Q9Y2T6); test: SAR analysis of selective Agonists of GPR55 using an Image-Based Assay - Set 2. [Related pubchem assays (depositor defined):AID1961, AID1965]; type: functional
# [19] = target: T6, Cannabinoid receptor 2 (Homo sapiens, UniProt P34972); test: SAR analysis of agonists of the Cannabinoid Receptor 2 using an Image-Based Assay - Set 2. [Related pubchem assays (depositor defined):AID1961, AID1965]; type: functional
# [20] = target: T5, G-protein coupled receptor 35; test: SAR analysis of Agonists of the GPR35 Receptor using an Image-Based Assay - Set 3. [Related pubchem assays (depositor defined):AID1961, AID1965]; type: functional
# [21] = target: T6, Cannabinoid receptor 2; test: SAR analysis of antagonists of the Cannabinoid Receptor 2 using an Image-Based Assay - Set 2. [Related pubchem assays (depositor defined):AID1961, AID1965]; type: functional
# [22] = target: T4, Cannabinoid receptor 1; test: SAR analysis of antagonists of the Cannabinoid Receptor 1 using an Image-Based Assay - Set 3. [Related pubchem assays (depositor defined):AID1961, AID1965]; type: functional
# T5 sequence (Q9HC97 whole entry): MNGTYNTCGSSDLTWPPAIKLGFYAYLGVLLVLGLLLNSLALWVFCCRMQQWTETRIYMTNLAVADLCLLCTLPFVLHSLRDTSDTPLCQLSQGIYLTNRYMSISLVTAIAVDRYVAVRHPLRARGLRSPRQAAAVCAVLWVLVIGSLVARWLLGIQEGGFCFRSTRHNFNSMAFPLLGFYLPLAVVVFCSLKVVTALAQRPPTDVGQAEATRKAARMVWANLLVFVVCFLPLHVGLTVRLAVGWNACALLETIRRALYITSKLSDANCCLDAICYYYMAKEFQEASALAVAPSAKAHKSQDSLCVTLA
# T6 sequence (P34972 whole entry): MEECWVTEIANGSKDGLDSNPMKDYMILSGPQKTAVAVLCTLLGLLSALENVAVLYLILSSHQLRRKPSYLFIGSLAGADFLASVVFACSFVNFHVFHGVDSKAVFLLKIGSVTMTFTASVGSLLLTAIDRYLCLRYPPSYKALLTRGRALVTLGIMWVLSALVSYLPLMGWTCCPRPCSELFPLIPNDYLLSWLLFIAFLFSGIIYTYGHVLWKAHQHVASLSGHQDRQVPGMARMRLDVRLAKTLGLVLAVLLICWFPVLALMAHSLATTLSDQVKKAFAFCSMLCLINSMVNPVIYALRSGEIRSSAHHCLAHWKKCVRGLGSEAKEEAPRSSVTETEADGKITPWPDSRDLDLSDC
# T4 sequence (P21554 whole entry): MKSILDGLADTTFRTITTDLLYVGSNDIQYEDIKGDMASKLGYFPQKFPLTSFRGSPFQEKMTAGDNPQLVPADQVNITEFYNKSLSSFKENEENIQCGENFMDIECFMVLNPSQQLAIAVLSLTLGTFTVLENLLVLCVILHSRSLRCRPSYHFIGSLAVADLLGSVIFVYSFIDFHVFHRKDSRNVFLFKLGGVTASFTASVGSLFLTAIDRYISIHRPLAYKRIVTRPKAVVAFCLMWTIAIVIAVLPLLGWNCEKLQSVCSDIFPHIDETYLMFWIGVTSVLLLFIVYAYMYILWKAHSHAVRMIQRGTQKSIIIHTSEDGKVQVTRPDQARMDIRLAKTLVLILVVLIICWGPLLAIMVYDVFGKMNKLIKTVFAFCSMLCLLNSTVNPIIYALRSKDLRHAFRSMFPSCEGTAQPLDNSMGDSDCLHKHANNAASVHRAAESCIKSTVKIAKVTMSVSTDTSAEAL
# X-box-binding protein 1, sequence (P17861 whole entry): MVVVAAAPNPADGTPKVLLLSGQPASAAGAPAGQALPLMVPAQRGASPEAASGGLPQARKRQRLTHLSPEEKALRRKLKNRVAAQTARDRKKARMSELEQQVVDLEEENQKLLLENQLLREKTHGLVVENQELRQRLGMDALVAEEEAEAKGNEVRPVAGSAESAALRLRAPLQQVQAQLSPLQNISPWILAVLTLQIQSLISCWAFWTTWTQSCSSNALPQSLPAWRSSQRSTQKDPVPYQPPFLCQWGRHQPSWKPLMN
# Nonstructural protein 1, sequence (Q194T2 whole entry): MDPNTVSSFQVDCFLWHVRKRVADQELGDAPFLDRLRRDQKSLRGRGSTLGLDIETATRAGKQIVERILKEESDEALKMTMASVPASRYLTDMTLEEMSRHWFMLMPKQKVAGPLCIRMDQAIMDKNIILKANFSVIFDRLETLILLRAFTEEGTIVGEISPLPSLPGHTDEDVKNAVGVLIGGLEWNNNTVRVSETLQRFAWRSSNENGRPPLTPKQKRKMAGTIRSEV
# G-protein coupled receptor 55, sequence (Q9Y2T6 whole entry): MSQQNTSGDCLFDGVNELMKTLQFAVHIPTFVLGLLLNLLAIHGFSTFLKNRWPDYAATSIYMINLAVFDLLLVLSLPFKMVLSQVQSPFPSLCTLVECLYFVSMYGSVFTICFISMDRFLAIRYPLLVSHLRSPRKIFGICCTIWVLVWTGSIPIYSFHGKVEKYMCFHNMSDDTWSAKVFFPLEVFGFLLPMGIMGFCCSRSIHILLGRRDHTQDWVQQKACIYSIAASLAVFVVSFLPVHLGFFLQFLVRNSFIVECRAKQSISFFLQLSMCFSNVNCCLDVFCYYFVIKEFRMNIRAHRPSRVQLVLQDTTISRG
# Luciferin 4-monooxygenase, sequence (P08659 whole entry): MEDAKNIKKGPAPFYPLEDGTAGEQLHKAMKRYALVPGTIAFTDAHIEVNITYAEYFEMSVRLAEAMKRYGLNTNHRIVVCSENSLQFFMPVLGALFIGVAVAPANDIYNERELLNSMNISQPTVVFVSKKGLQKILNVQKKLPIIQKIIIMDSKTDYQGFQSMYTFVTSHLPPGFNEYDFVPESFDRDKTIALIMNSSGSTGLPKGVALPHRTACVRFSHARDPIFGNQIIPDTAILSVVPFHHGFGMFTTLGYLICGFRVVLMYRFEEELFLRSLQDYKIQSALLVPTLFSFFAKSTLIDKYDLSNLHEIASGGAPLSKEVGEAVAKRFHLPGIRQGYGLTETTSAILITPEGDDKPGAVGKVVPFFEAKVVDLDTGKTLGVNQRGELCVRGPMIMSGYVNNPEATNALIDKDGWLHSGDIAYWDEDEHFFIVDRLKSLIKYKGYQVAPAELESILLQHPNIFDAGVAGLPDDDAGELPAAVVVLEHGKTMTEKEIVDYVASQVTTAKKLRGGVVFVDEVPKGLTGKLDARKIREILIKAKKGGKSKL
structure (smiles),measurement,setting,value
COP(=O)(OC)c1ccc(NCc2cc(O)ccc2O)cc1,IC50,[1],9.51 µM (active)
Cc1ccc(-n2cc(CNCC3CC(=O)N(C4CC4)C3)c(-c3cccc(C)c3)n2)cc1 (stereo not drawn),EC50,[2],6.68 µM (active)
Cc1ccc(-c2nn(CC(=O)NCc3cc(-c4nn(C)c(=O)c5ccccc45)ccc3C)c(=O)c3ccccc23)cc1,EC50,[3],8.15 µM (active)
same,EC50,[4],> 133 µM (inactive)
same,EC50,[5],8.99 µM (active)
same,Absolute IC50 (XBP1),[6],10 µM
same,EC50,[7],6.81 µM (active)
same,EC50,[8],4.25 µM (active)
same,EC50,[9],6.28 µM (active)
same,EC50,[10],5.6 µM (inconclusive)
same,EC50,[11],6.29 µM (inconclusive)
CCN(CC)c1ccc(/C=C(\C#N)C(N)=S)cc1,IC50,[12],5.92 µM (not active)
same,EC50,[13],22.7 µM (active)
same,IC50,[14],39.1 µM (active)
same,EC50,[15],> 112 µM (not active)
O=C(NC1CCCN(Cc2ccc(Cl)cc2)C1)C1CCC1 (stereo not drawn),EC50,[2],1.33 µM (active)
CC(C)Oc1ccc(S(=O)(=O)N2CCOCC2)cc1NC(=O)c1cc2c(s1)CCCCC2,EC50,[16],> 32 µM (inactive)
same,IC50,[17],> 32 µM (inactive)
same,EC50,[18],> 32 µM (inactive)
same,EC50,[19],> 32 µM (inactive)
same,EC50,[20],> 32 µM (inactive)
same,IC50,[21],> 32 µM (inactive)
same,IC50,[22],27.5 µM (inactive)
